pIC50: −log10 of the molar value. Converted amounts (≈) assume the structure as drawn.
Assays:
HIV1 protease [1] = target: T1, HIV1 protease (Human immunodeficiency virus type 1 group M subtype B, UniProt P04585); test: Test 1: inhibition of proteolytic activity of HIV-1 protease (HPLC); type: biochemical; parameters: proteolytic activity of HIV-1 protease; details: HPLC; HIV Substrate III; read-out: Enzyme Assays (HPLC) IC50
Method: TEST I-INHIBITION OF PROTEOLYTIC ACTIVITY OF HIV-1-PROTEASE
The ability of compounds of the invention to inhibit the proteolytic activity of HIV-1 protease was determined by using the method of Louis, et al., Biochem. Biophys. Res. Comm. 159:87-94, (1989), which is herein incorporated by reference. In using the method of Louis et al., HIV Substrate III, His-Lys-Ala-Arg-VaI-Leu-pNO2 Phe-Glu-Ala-Nle-Ser-NH2 purchased from Bachem Bioscience, Inc. Philadelphia, Pa. was used in place of the nonapeptide substrate […]amide.

HIV-1, isolate III B = test: Test 2: inhibition of the growth of HIV-1 in tissue culture cells (CEM-SS, syncytia formation); type: cell-based; details: Human immunodeficiency virus 1, 168 h, 7 days, read-out: HIVMIC IC50
Text: TEST 2-INHIBITION OF THE GROWTH OF HIV-1 IN TISSUE CULTURE CELLS
This test measured the capability of the compounds to inhibit the growth of HIV-1 in tissue culture cells. CEM-SS cells (human T-lymphocyte derived tissue culture cells) were infected with HIV-1, isolate III B which was produced in tissue culture. After 7 days, the virus has killed the cells as monitored by extensive syncytia formation (cell fusion). The test measured the capability of the chemical synthetic compounds to prevent syncytia formation and cell death. CEM cells were grown at 37° C. in an atmosphere of 5% CO2. HIV isolate III B was prepared by growth in and crude purification from CEM cells. The chemical synthetic compound was added to 96 well microtiter plates and diluted in varying steps across the wells of the plate. Cells and virus were added to each well and the concentration of the chemical synthetic compound required to inhibit syncytia formation by 50% (the IC50) after 7 days was determined. The viability of CEM cells which are not infected with HIV-1 isolate III B was simultaneously determined by the MTT assay, as described in Mossman, J. Immunolog. Methods 65:55-63, 1983, which is herein incorporated by reference.

HIV1 protease [2] = target: T1, HIV1 protease; test: Test 3: inhibition of proteolytic activity of HIV-1 protease by scintillation proximity assay (SPA); type: biochemical; details: SPA; room temperature, 40 minutes; read-out: Enzyme Assays (SPA) IC50
Text: TEST 3-INHIBITION OF PROTEOLYTIC ACTIVITY OF HIV-1-PROTEASE AS DETERMINED BY SCINTILLATION […] ASSAY (SPA).
This is an alternative assay to test #1 and is used to determine the ability of compounds to inhibit the HIV1 protease activity. The SPA assay for HIV1 protease has been developed by Amersham Corporation, Arlington Heights, Ill., and is available for commercial use. In this system the substrate for HIV1 protease, AcN-(I^125)[…]SPA bead, is cleaved by the HIV1 protease at the Phe-Phe bond releasing the I^125 -labelled peptide fragment from the SPA bead. This event causes removal of detectable signal from the microsphere bead indicated by reduction in radioactivity (measured in CPM), which is proportional to the proteolytic activity. The substrate, and the HIV 1 protease were incubated in presence of synthetic compound in various dilutions at room temperature for 40 minutes, and the concentration of the compound required to inhibit the proteolytic activity by 50% (IC50) was determined.

Structure (SMILES)	pIC50 (HIV1 protease [1])	IC50 (HIV-1, isolate III B)	pIC50 (HIV1 protease [2])
CC(C)(C)NC(=O)c1ccccc1SC[C@H](O)[C@H](Cc1ccccc1)NC(=O)[C@H](CC(N)=O)NC(=O)c1ccc2ccccc2n1 [Compound 2]	> 6.30	7.99 µg/mL (≈ 12.4 µM)	–
CC(C)(C)NC(=O)c1ccccc1SC[C@@H](O)[C@H](Cc1ccccc1)NC(=O)[C@H](CC(N)=O)NC(=O)c1ccc2ccccc2n1 [Compound 3]	7.27	0.537 µg/mL (≈ 0.837 µM)	–
CC(C)(C)NC(=O)c1ccccc1OC[C@H](O)[C@H](Cc1ccccc1)NC(=O)[C@H](CC(N)=O)NC(=O)c1ccc2ccccc2n1 [Compound 4]	8.00	1.7 µg/mL (≈ 2.72 µM)	–
CC(C)(C)NC(=O)c1ccccc1OC[C@@H](O)[C@H](Cc1ccccc1)NC(=O)[C@H](CC(N)=O)NC(=O)c1ccc2ccccc2n1 [Compound 5]	8.10	1.77 µg/mL (≈ 2.83 µM)	–
CC(C)(C)NC(=O)c1ccccc1OC[C@H](O)[C@H](Cc1ccccc1)NC(=O)[C@H](CC(N)=O)NC(=O)c1ccc2ccccc2[n+]1[O-] [Compound 7]	7.30	5.69 µg/mL (≈ 8.87 µM)	–
CCCCNC(=O)c1ccccc1SC[C@H](O)[C@H](Cc1ccccc1)NC(=O)[C@H](CC(N)=O)NC(=O)c1ccc2ccccc2n1 [Compound 8]	6.40	28.1 µg/mL (≈ 43.8 µM)	–
CC(C)(C)NC(=O)C1CCCC1SCC(O)[C@H](Cc1ccccc1)NC(=O)[C@H](CC(N)=O)NC(=O)c1ccc2ccccc2n1 (stereo partly drawn) [Compound 13]	6.52	5.07 µg/mL (≈ 8 µM)	–
NC(=O)C[C@H](NC(=O)c1ccc2ccccc2n1)C(=O)N[C@@H](Cc1ccccc1)[C@@H](O)CSC1CCCC1C(=O)Nc1ccccc1 (stereo partly drawn) [Compound 20]	7.13	6.26 µg/mL (≈ 9.57 µM)	–
CCC(C)[C@H](NC(=O)c1ccc2ccccc2n1)C(=O)N[C@@H](Cc1ccccc1)[C@@H](O)CSc1ccccc1C(=O)NC(C)(C)C (stereo partly drawn) [Compound 35]	7.59	2.1 µg/mL (≈ 3.28 µM)	–
CCC(C)[C@H](NC(=O)c1ccc2ccccc2n1)C(=O)N[C@@H](Cc1ccccc1)[C@@H](O)COc1ccccc1C(=O)NC(C)(C)C (stereo partly drawn) [Compound 37]	7.22	6.08 µg/mL (≈ 9.73 µM)	–
CC(C)(C)NC(=O)c1ccccc1SC[C@H](O)[C@H](Cc1ccccc1)NC(=O)[C@@H](CC(N)=O)NC(=O)c1ccc2ccccc2n1 [Compound 47]	< 7.00	–	–
CC(C)(C)NC(=O)c1ccccc1SC[C@H](O)[C@H](Cc1ccccc1)NC(=O)[C@H](CCC(N)=O)NC(=O)c1ccc2ccccc2n1 [Compound 48]	< 7.00	–	–
CC(C)[C@H](NC(=O)c1ccc2ccccc2n1)C(=O)N[C@@H](Cc1ccccc1)[C@@H](O)CSc1ccccc1C(=O)NC(C)(C)C [Compound 49]	7.10	19.4 µg/mL (≈ 30.9 µM)	–
CC(C)(C)NC(=O)c1ccccc1SC[C@H](O)[C@H](Cc1ccccc1)NC(=O)[C@H](Cc1c[nH]c2ccccc12)NC(=O)c1ccc2ccccc2n1 [Compound 51]	< 8.30	–	–
CC(C)(C)NC(=O)c1ccccc1SC[C@H](O)[C@H](Cc1ccccc1)NC(=O)[C@H](CC(N)=O)NC(=O)c1ccc2ccccc2c1 [Compound 52]	–	8.58 µg/mL (≈ 13.4 µM)	6.41
CCn1cc(C(=O)N[C@@H](CC(N)=O)C(=O)N[C@@H](Cc2ccccc2)[C@@H](O)CSc2ccccc2C(=O)NC(C)(C)C)c(=O)c2ccc(C)nc21 [Compound 53]	< 7.00	–	–

Structure (SMILES)	pIC50 (HIV1 protease [1])	IC50 (HIV-1, isolate III B)	pIC50 (HIV1 protease [2])
CC(C)(C)NC(=O)c1ccccc1SC[C@H](O)[C@H](Cc1ccccc1)NC(=O)[C@H](CC(N)=O)NC(=O)c1ccccn1 [Compound 54]	< 7.00	–	–
CC(C)(C)NC(=O)c1ccccc1SC[C@H](O)[C@H](Cc1ccccc1)NC(=O)[C@H](CC(N)=O)NC(=O)c1cccc[n+]1[O-] [Compound 55]	< 7.00	–	–
CC(C)(C)NC(=O)c1ccccc1SC[C@H](O)[C@H](Cc1ccccc1)NC(=O)[C@H](CC(N)=O)NC(=O)c1ccc(O)cn1 [Compound 56]	< 7.00	–	–
CC(C)(C)NC(=O)c1ccccc1SC[C@H](O)[C@H](Cc1ccccc1)NC(=O)[C@H](CC(N)=O)NC(=O)c1ccc[n+]([O-])c1 [Compound 57]	< 7.00	–	–
CC(C)(C)NC(=O)c1ccccc1SC[C@H](O)[C@H](Cc1ccccc1)NC(=O)[C@H](CC(N)=O)NC(=O)c1cccnc1O [Compound 58]	< 7.00	–	–
CC(C)(C)NC(=O)c1ccccc1OC[C@H](O)[C@H](Cc1ccccc1)NC(=O)[C@H](CC(N)=O)NC(=O)c1cnc2ccccc2n1 [Compound 59]	8.30	1.41 µg/mL (≈ 2.25 µM)	–
CC(C)(C)NC(=O)c1ccccc1OC[C@@H](O)[C@@H](NC(=O)[C@H](CC(N)=O)NC(=O)c1ccc2ccccc2n1)c1ccccc1 [Compound 75]	< 6.30	–	–
CCC[C@H](NC(=O)[C@H](CC(N)=O)NC(=O)c1ccc2ccccc2n1)[C@H](O)COc1ccccc1C(=O)NC(C)(C)C [Compound 77]	–	17.5 µg/mL (≈ 30.3 µM)	–
CC(C)(C)NC(=O)c1ccccc1SC[C@@H](O)[C@H](CC1CCCCC1)NC(=O)[C@H](CC(N)=O)NC(=O)c1ccc2ccccc2n1 [Compound 78]	–	0.68 µg/mL (≈ 1.05 µM)	6.64
CC(C)(C)NC(=O)c1ccccc1SC[C@H](O)[C@H](Cc1ccc(O)cc1)NC(=O)[C@H](CC(N)=O)NC(=O)c1ccc2ccccc2n1 [Compound 79]	–	9.1 µg/mL (≈ 13.8 µM)	< 6.30
CC(C)(C)NC(=O)c1ccccc1OC[C@H](O)[C@H](Cc1ccccc1)NC(=O)[C@H](CC(N)=O)NC(=O)OCc1ccccc1 [IN 1]	–	4.95 µg/mL (≈ 8.19 µM)	7.10
COc1ccc(C[C@H](NC(=O)OC(C)(C)C)C(=O)N[C@@H](Cc2ccccc2)[C@@H](O)CSc2ccccc2C(=O)NC(C)(C)C)cc1 [IN 2]	< 7.00	–	–
CC(C)(C)NC(=O)c1ccccc1SC[C@H](O)[C@H](Cc1ccccc1)NC(=O)[C@H](CCC(N)=O)NC(=O)OC(C)(C)C [IN 3]	< 7.00	–	–
CC(C)[C@H](NC(=O)OC(C)(C)C)C(=O)N[C@@H](Cc1ccccc1)[C@@H](O)CSc1ccccc1C(=O)NC(C)(C)C [IN 4]	< 7.00	–	–
CSCC[C@H](NC(=O)OC(C)(C)C)C(=O)N[C@@H](Cc1ccccc1)[C@@H](O)CSc1ccccc1C(=O)NC(C)(C)C [IN 5]	< 7.00	–	–
CC(C)(C)NC(=O)c1ccccc1SC[C@H](O)[C@H](Cc1ccccc1)NC(=O)[C@H](Cc1c[nH]c2ccccc12)NC(=O)OC(C)(C)C [IN 6]	< 7.00	–	–
